Results published in patent US11154519B2, “Inhibitors and their uses” (MEDICAL RESEARCH COUNCIL, priority 2015, dated 2021).

Columns and labels:
HeLa cells = test: Cell death dose response (CellTox green, IncuCyte); assay type: cell-based; conditions: for EC50: Homo sapiens, area under % cell death vs time curve against log conc, read-out: Effect on cell death ⇒ EC50; for Effect on cell death: IncuCyte, 0-20 μM
Protocol: Toxicity of the compounds is assessed using Cell viability Counting Kit-8 (Dojindo) or in a Incucyte (Essenbioscience) using both phase contrast and IncuCyte™ Cytotox Green Reagent.
HeLa cells (40,000 cells/ml) were plated in a 96-well plate and treated with different concentrations (0-20 μM) of a compound as indicated in the presence of 250 ng/ml Tunicamycin for 72 hours. To monitor cell death 1/2000 dilution of the CellTox green dye (Promega) was added to the media. The growth of the cells was monitored over time and pictures taken every 2 hours with the IncuCyte ZOOM system and analysed by the IncuCyte ZOOM software (Essen BioScience). […] Cytoprotection against ER stress can be measured by a suitable assay. In this instance, cytoprotection was measured in HeLa cells in which ER stress was elicited by the addition of media containing tunicamycin, a drug that blocks N-glycosylation, thereby preventing protein folding and inducing the unfolded protein response. Cell viability was then detected in the presence and absence of a compound listed in Table 1 after a set period of time, by monitoring cell growth over time. Cytoprotection from ER stress was measured in terms of the percentage increase in viable cells (relative to control) after ER stress.
EC50 were extrapolated from dose response experiments on cell death. Data from IncuCyte was plotted and analysed in Prism. The “% of cell death” for each data point. For each concentration there is a % of cell death vs time, the area under the curve was taken and plotted against log conc=>EC50 (analysis in Prism).

R15A or R15B = test: Selective binding towards R15A or R15B (based on SPR); parameters: species or system human
Protocol: In one embodiment, the compounds of formula IB inhibit PPP1R15A and PPP1R15B. Inhibition of PPP1R15A and PPP1R15B can be determined from binding analysis. For example, binding can be analysed using SPR (surface plasmon resonance) to obtain KD values. A PPP1R15A and PPP1R15B inhibitor may be defined as a compound where the difference in KD values between R15A and R15B is no more than about 3 fold.
Small molecules were stored as 50 mM stock solutions in 100% DMSO. Prior to determining binding constants, serial dilutions of either 12 or 8 concentrations of the compounds were prepared in the running buffer in a 96-well plate. Prior to each compound dilution series the regulatory subunit, MBP-R15A^325-636-His or MBP-R15B^340-698-His, was diluted to 10 μM in the running buffer and captured on the bio-PP1c surface at a flow rate of 30 μl/min for 1 minute to form the holophosphatase complex on the sensor chip surface. This was followed by 1 minute stabilization period, to wash off any unspecific binding. Then, without regenerating the surface, the compound dilution series was injected onto the surface of the chip at a flow rate of 30 μl/min for 1 minute, followed by 2 minutes dissociation time. After each dilution series the surface was regenerated using 3 M NaCl for 90 seconds. After regeneration, SPR responses generally returned to base levels and the bio-PP1c surface was ready for the next compound dilution series. In order to be able to correct for small variations in DMSO concentration between samples, eight solvent samples ranging from 0.06 to 8% DMSO were injected every 50th cycle. The flow cell temperature was 10° C.
Sensorgrams were analyzed using the Biacore T200 evaluation software and the binding constants determined based on a steady-state model. Kinetic experiments are carried out using different concentrations of the compound and their respective equilibrium binding levels determined.

Row | SMILES | EC50 (HeLa cells) [µM] | Effect on cell death (HeLa cells) | Selective binding towards R15A or R15B (based on SPR) (R15A or R15B)
1 | [H]/N=C(\N)NN=Cc1ccc(F)c(Cl)c1Cl [Compound 14, (E)-2-(2,3-dichloro-4-fluorobenzylidene)hydrazine-1-carboximidamide] | 18.4 | Yes | R15AB (A PPP1R15A and PPP1R15B inhibitor may be defined as a compound where the difference in KD values between R15A and R15B is no more than about 3 fold)
2 | [H]/N=C(\N)NN=Cc1ccc(F)c(Cl)c1 [Compound 15, (E)-2-(3-chloro-4-fluorobenzylidene)hydrazine-1-carboximidamide] | 19.5 | Yes | R15AB (A PPP1R15A and PPP1R15B inhibitor may be defined as a compound where the difference in KD values between R15A and R15B is no more than about 3 fold)
3 | [H]/N=C(\N)NN=Cc1cccc(Cl)c1Cl [Compound 16, (E)-2-(2,3-dichlorobenzylidene)hydrazine-1-carboximidamide] | 20.8 | Yes | R15B (A “selective inhibitor” may be defined as a compound where the difference in KD values between R15A and R15B is greater than 3 fold)
4 | [H]/N=C(\N)NN=Cc1ccccc1F [Compound 17, (E)-2-(2-fluorobenzylidene)hydrazine-1-carboximidamide] |  | No | R15AB (A PPP1R15A and PPP1R15B inhibitor may be defined as a compound where the difference in KD values between R15A and R15B is no more than about 3 fold)
5 | N=C(N)N/N=C/c1cc(Cl)c(Cl)cc1F [Compound 18, (E)-2-(4,5-dichloro-2-fluorobenzylidene)hydrazine-1-carboximidamide] | 23.8 | Yes | R15AB (A PPP1R15A and PPP1R15B inhibitor may be defined as a compound where the difference in KD values between R15A and R15B is no more than about 3 fold)
6 | [H]/N=C(\N)NN=Cc1cc(F)ccc1Cl [Compound 20, (E)-2-(2-chloro-5-fluorobenzylidene)hydrazine-1-carboximidamide] | 37.8 | Yes | R15AB (A PPP1R15A and PPP1R15B inhibitor may be defined as a compound where the difference in KD values between R15A and R15B is no more than about 3 fold)
7 | [H]/N=C(\N)NN=Cc1cccnc1Cl [Compound 21, (E)-2-((2-chloropyridin-3-yl)methylene)hydrazine-1-carboximidamide] |  | No | R15AB (A PPP1R15A and PPP1R15B inhibitor may be defined as a compound where the difference in KD values between R15A and R15B is no more than about 3 fold)
8 | [H]/N=C(\N)NN=Cc1ccc(Cl)nc1Cl [Compound 22, (E)-2-((2,6-dichloropyridin-3-yl)methylene)hydrazine-1-carboximidamide] |  | No | R15AB (A PPP1R15A and PPP1R15B inhibitor may be defined as a compound where the difference in KD values between R15A and R15B is no more than about 3 fold)
9 | [H]/N=C(\N)NN=Cc1cccc(F)c1 [Compound 23, (E)-2-(3-fluorobenzylidene)hydrazine-1-carboximidamide] |  | No | R15AB (A PPP1R15A and PPP1R15B inhibitor may be defined as a compound where the difference in KD values between R15A and R15B is no more than about 3 fold)
10 | [H]/N=C(\N)NN=Cc1cccc(Cl)c1 [Compound 24, (E)-2-(3-chlorobenzylidene)hydrazine-1-carboximidamide] |  | No | R15AB (A PPP1R15A and PPP1R15B inhibitor may be defined as a compound where the difference in KD values between R15A and R15B is no more than about 3 fold)
11 | [H]/N=C(\N)NN=Cc1cc(Cl)ccc1Cl [Compound 26, (E)-2-(2,5-dichlorobenzylidene)hydrazine-1-carboximidamide] |  | No | R15AB (A PPP1R15A and PPP1R15B inhibitor may be defined as a compound where the difference in KD values between R15A and R15B is no more than about 3 fold)
12 | [H]/N=C(\N)NN=Cc1cc(F)cc(F)c1Cl [Compound 29, (E)-2-(2-chloro-3,5-difluorobenzylidene)hydrazine-1-carboximidamide] |  | No | R15AB (A PPP1R15A and PPP1R15B inhibitor may be defined as a compound where the difference in KD values between R15A and R15B is no more than about 3 fold)
13 | [H]/N=C(\N)NN=Cc1cccc(Cl)c1F [Compound 30, (E)-2-(3-chloro-2-fluorobenzylidene)hydrazine-1-carboximidamide] |  | No | R15AB (A PPP1R15A and PPP1R15B inhibitor may be defined as a compound where the difference in KD values between R15A and R15B is no more than about 3 fold)
14 | [H]/N=C(\N)NN=Cc1c(Cl)ccc(Cl)c1Cl [Compound 31, (E)-2-(2,3,6-trichlorobenzylidene)hydrazine-1-carboximidamide] |  | No | R15AB (A PPP1R15A and PPP1R15B inhibitor may be defined as a compound where the difference in KD values between R15A and R15B is no more than about 3 fold)
15 | [H]/N=C(\N)NN=Cc1cc(Cl)cc(Cl)c1 [Compound 34, (E)-2-(3,5-dichlorobenzylidene)hydrazine-1-carboximidamide] |  | No | R15AB (A PPP1R15A and PPP1R15B inhibitor may be defined as a compound where the difference in KD values between R15A and R15B is no more than about 3 fold)
